Read-outs that look alike come from different tables or passages of the source. Starred links: 1 amine or outer side, 2 acyl side, 3 side chain; linkers in the order of their positions; H or OH if unused. Non-standard residues stand in square brackets, D forms with d. Groups on a side chain read outwards from the residue. *: point of attachment. Decanoyl(10-O(3-COOH-Ph)) = O=C(O)c1cccc(OCCCCCCCCCC(=O)*)c1; C20 diacid = O=C(O)CCCCCCCCCCCCCCCCCCC(=O)*; C16 diacid = O=C(O)CCCCCCCCCCCCCCC(=O)*; γGlu = O=C(O)[C@H](CCC(=O)[*:2])N[*:1]; εLys = N[C@@H](CCCCN[*:1])C(=O)[*:2]; Trx = NC[C@H]1CC[C@H](C(=O)O)CC1; AEEA = NCCOCCOCC(=O)O; Aib = CC(C)(N)C(=O)O
What was measured:
[1] = Pharmacokinetic studies in Beagle dogs after oral administration of SNAC-based tablets; type: in vivo; conditions: for Tmax / half-life: male, Beagle
Experimental: To be able to evaluate oral exposure following tablet dosing, tablet compositions comprising the test substance and SNAC (sodium N-(8-(2-hydroxybenzoyl)amino)caprylate) were prepared by mixing test substance with roller compacted SNAC and magnesium stearate as, e.g., described in WO 2019/149880. The amount of SNAC in the tablet composition was 100-300 mg, the amount of magnesium stearate in the tablet composition was 7.7 mg, and the target amount of each test substance in the tablet composition was 3-4 mg.
Pharmacokinetic (PK) studies in Beagle dogs were conducted to determine the exposure of the GLP-1 receptor-amylin receptor co-agonist after peroral administration.
For the pharmacokinetic studies male Beagle dogs were used, 2-7, or 1 to 5, years of age and weighing approximately 10-15, such as 10-12, kg at the start of the studies. The dogs were group housed in pens (12 hours light: 12 hours dark),and fed individually and restrictedly once daily with Royal Canin Medium Adult dog (Royal Canin Products, China Branch, or Brogaarden A/S, Denmark). Exercise and group social were permitted daily, whenever possible. The dogs were used for repeated pharmacokinetic studies with a suitable wash-out period between successive dosing. An appropriate acclimatisation period was given prior to initiation of the first pharmacokinetic study. All handling, dosing and blood sampling of the animals were performed by trained and skilled staff. Before the studies the dogs were fasted overnight and from 0 to 4 h after dosing. Besides, the dogs were restricted to water 1 hour before dosing until 4 hours after dosing, but otherwise have ad libitum access to water during the whole period.
The tablets used for the p.o. studies described herein were immediate release SNAC-based tablets dosed orally.
The tablets were administered in the following manner: 10 min prior to tablet administration the dogs may be dosed subcutaneously with approximately 3 nmol/kg of SEQ ID NO: 237, tablets were placed in the back of the mouth of the dog to prevent chewing. The mouth was then closed, and 10 mL of tap water was given by a syringe or gavage to facilitate swallowing of the tablet.
Blood was sampled at predefined time points for up till 240 hours, such as up till 10 hr, post dosing to adequately cover the full plasma concentration-time absorption profile of the GLP-1 agonist.
For each blood sampling time point approximately 0.8 mL of whole blood was collected in a 1.5 mL EDTA coated tube, and the tube was gently turned to allowing mixing of the sample with the EDTA. Blood samples (for example 0.8 mL) were collected in EDTA buffer (8 mM) and then centrifuged at 4° C. and 2000 G for 10 minutes. Plasma was pipetted into Micronic tubes on dry ice, and kept at -20° C. until analysis.
Blood samples were taken as appropriate, for example from a venflon in the cephalic vein in the front leg for the first 2 hours and then with syringe from the jugular vein for the rest of the time points (the first few drops were allowed to drain from the venflon to avoid heparin saline from the venflon in the sample).
Plasma concentration of the GLP-1 receptor-amylin receptor co-agonists were determined using LCMS. Individual plasma concentration-time profiles were analysed by a non-compartmental model in WinNonlin v. 5.0 or Phoenix v. 6.2 or 6.3 (Pharsight Inc., Mountain View, CA, USA), or other relevant software for PK analysis.
The individual plasma concentration-time profiles were analysed by non-compartmental analysis (NCA).

[2] = target: T1, human amylin receptor (hAmyR3) (Homo sapiens, UniProt O60896+P30988); assay: Human amylin receptor in vitro potency assay (CRE-luciferase reporter, BHK cells); type: cell-based; conditions: Table 4a; BHK hAmyR3/CRE-Luc cells, 3 hours; read-out: Human AmyR3 potency [EC50 (pM)];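 further: BHK cells expressing human calcitonin receptor plus RAMP3 (amylin-3 receptor) with a CRE-luciferase reporter, agonist activity read as luminescence from cAMP-driven transcription, 7-point serial dilutions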
T1 construct: host or cells: BHK cells (Hollex-1 line: human calcitonin receptor (a) + CRE-Luc), further transfected with human RAMP3
T1 sequence (P30988 25-474): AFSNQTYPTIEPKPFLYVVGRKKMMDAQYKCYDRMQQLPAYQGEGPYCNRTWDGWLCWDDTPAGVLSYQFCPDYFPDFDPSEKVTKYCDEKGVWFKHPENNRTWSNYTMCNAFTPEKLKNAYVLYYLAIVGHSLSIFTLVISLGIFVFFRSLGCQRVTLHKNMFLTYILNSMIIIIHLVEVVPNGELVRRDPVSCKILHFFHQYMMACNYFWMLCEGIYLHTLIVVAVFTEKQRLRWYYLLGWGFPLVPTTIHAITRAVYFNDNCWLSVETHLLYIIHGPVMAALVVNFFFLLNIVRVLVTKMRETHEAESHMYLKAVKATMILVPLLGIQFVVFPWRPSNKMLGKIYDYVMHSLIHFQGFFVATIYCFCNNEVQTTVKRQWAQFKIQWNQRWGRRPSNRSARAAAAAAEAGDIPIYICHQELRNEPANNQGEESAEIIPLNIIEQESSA
T1 sequence (O60896 24-148): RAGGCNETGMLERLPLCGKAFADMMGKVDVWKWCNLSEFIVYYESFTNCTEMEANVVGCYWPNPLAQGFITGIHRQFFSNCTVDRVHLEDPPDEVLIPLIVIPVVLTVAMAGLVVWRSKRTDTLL

human GLP-1 receptor = target: T2, human GLP-1 receptor (Homo sapiens, UniProt P43220); assay: Human GLP-1 receptor in vitro potency assay (CRE-luciferase reporter, BHK cells); type: cell-based; conditions: Table 4a; BHK cells expressing human GLP-1R, CRE-Luc, 3 hours; read-out: Human GLP-1R potency [EC50 (pM)]
T2 construct: expressed in transfected cells; host or cells: BHK (Baby Hamster Kidney) cells, clone BHK 467-12A KZ-10, stably transfected, with CRE-luciferase reporter
T2 sequence (P43220 24-463): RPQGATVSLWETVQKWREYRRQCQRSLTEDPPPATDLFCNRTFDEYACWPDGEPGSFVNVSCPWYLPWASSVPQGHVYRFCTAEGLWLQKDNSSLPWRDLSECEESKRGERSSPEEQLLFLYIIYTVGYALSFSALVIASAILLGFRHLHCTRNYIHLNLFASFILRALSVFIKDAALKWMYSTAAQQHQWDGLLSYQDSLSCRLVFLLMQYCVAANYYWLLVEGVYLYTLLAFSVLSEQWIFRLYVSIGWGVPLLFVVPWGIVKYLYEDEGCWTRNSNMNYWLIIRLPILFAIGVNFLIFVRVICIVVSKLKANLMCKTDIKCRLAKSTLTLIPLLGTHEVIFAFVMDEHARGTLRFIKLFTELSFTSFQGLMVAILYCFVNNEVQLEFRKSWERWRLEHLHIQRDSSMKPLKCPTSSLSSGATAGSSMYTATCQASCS
Experimental: It is thus possible to measure GLP-1 receptor activity using a CRE-luciferase reporter gene introduced into Baby Hamster Kidney (BHK) cells co-expressing the GLP-1 receptor.
Cells were aliquoted and stored at -180° C. until use.
Plates were sealed and incubated at room temperature with gentle shaking for 30 minutes while protected from light. Luminescence was detected on a luminescence plate reader e.g. a Synergy 2 (BioTek).

[3] = dogs, oral administration (tablet)

Row | Substance | AUC/D ([1]; dog, in vivo, po) | Cmax/D ([1]; dog, in vivo, po) | Tmax ([1]; dog, in vivo, po, Tmax (hr)) | half-life ([1]; dog, in vivo, po, T½ (hr)) | EC50 [2] | EC50 (human GLP-1 receptor) | AUC/D [1, 3] | Cmax/D [1, 3] | Tmax ([1]; dog, plasma, po, dogs, oral administration (tablet), read-out: Tmax) | half-life ([1]; dog, plasma, po, dogs, oral administration (tablet), read-out: T½ (converted))
1 | H-H[Aib]EGTFTSDVSSYLEEQAAREFIEWLVRGRK([AEEA-AEEA-γGlu-Trx-C20 diacid])GGGGEASELSTAALGRLSAELHELATLPRTETGSGSP-NH2 [Compound 0503] | 8.72 kg·h/L | 0.14 kg/L | 4 h | 2460 min | 7.7 pM | 6.5 pM |  |  |  | 
2 | H-H[Aib]EGTFTSDVSK([AEEA-AEEA-γGlu-C16 diacid])YLEEQAARK([AEEA-AEEA-γGlu-C16 diacid])FIEWLVRGRGEGGGGGASELSTAALGRLSAELHELATLPRTETGSGSP-NH2 [Compound 0576] | 28.20 kg·h/L | 0.34 kg/L | 1.3 h | 5640 min | 10.1 pM | 2.9 pM |  |  |  | 
3 | H-H[Aib]EGTFTSDVSSYLEEQAAK([εLys-AEEA-AEEA-γGlu-Trx-C20 diacid])EFIEWLVRGRGEASELSTAALGRLSAELHELATLPRTETGSGSP-NH2 [Compound 0436] | 15.00 kg·h/L | 0.3 kg/L | 1.5 h | 2100 min | 12.3 pM | 15.2 pM |  |  |  | 
4 | H-H[Aib]EGTFTSDVSSYLEGQAAREFIAWLVRGRGQEPK([AEEA-AEEA-γGlu-Trx-C20 diacid])GQAPEASELSTAALGRLSAELHELATLPRTETGSGSP-NH2 [Compound 0539] | 8.71 kg·h/L | 0.22 kg/L | 3 h | 1800 min | 12.1 pM | 5 pM |  |  |  | 
5 | H-H[Aib]EGTFTSDK([AEEA-AEEA-γGlu-C16 diacid])SSYLEEQAAREFIAWLVRGRGGGGGASELSTAALGRLSK([AEEA-AEEA-γGlu-C16 diacid])ELHELATLPRTETGSGSP-NH2 [Compound 0292] | 65.29 kg·h/L | 0.72 kg/L | 2 h | 6600 min | 33.8 pM | 12 pM |  |  |  | 
6 | H-H[Aib]EGTFTSDVSK([AEEA-AEEA-γGlu-C16 diacid])YLEEQAARK([AEEA-AEEA-γGlu-C16 diacid])FIAWLVRGRQEASELSTAALGRLSAELHELATLPRTETGSGSP-NH2 [Compound 0578] | 30.60 kg·h/L | 0.39 kg/L | 1.3 h | 5400 min | 26.9 pM | 2.5 pM |  |  |  | 
7 | H-H[Aib]EGTFTSDVSSYLEEK([AEEA-AEEA-γGlu-Trx-C20 diacid])AAREFIAWLVRGRGGGGEASELSTAALGRLSAELHELATLPRTETGSGSP-NH2 [Compound 0265] | 5.68 kg·h/L | 0.16 kg/L | 2 h | 960 min | 8.1 pM | 6 pM |  |  |  | 
8 | H-H[Aib]EGTFTSDVSSYLEEQAAREFIAWLVRGK([AEEA-AEEA-γGlu-Decanoyl(10-O(3-COOH-Ph))])K([AEEA-AEEA-γGlu-Decanoyl(10-O(3-COOH-Ph))])GGGGASELSTAALGRLSAELHELATLPRTETGSGSP-NH2 [Compound 0235] |  |  |  |  | 24 pM | 10.4 pM | 3.3 kg·h/L | 0.22 kg/L | 1 h | 1260 min
9 | H-H[Aib]EGTFTSDVSK([AEEA-AEEA-γGlu-C16 diacid])YLEEQAARK([AEEA-AEEA-γGlu-C16 diacid])FIEWLVRGRGEASELSTAALGRLSAELHELATLPRTETGSGSP-NH2 [Compound 0577] | 37.60 kg·h/L | 0.45 kg/L | 1.3 h | 5580 min | 19.1 pM | 5.6 pM |  |  |  | 

— patent US20230331803A1, “CO-AGONISTS OF THE GLP-1 AND AMYLIN RECEPTORS” (priority 2020, published 2023)
